Data published in paper PMC6019134, “1,2,6-Thiadiazinones as Novel Narrow Spectrum Calcium/Calmodulin-Dependent Protein Kinase Kinase 2 (CaMKK2) Inhibitors” (Molecules : A Journal of Synthetic Chemistry and Natural …, 2018).

Assays:
Assay in all cases: DSF thermal shift, kinase panel
Format in all cases: binding
Conditions in all cases: 10 μM compound
AAK1 = target: T1, AAK1 (Homo sapiens, UniProt Q2M2I8)
T1 construct: purchased in-house (home-made panel, SGC-style construct names)
In short: (§1)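 Recombinant kinase (E. coli-expressed, His-tag removed by TEV, SEC-polished) at 1 µM in 100 mM K2HPO4 pH 7.5, 150 mM NaCl, 10% glycerol with dye, plus 10 µM compound. Heated 25 °C to 95 °C at 0.05 °C/s; dTm from Boltzmann fits versus 0.2% DMSO control.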

CHEK2 = target: T2, CHEK2 (Homo sapiens, UniProt O96017)
T2 construct: purchased in-house (home-made panel, SGC-style construct names)
T2 sequence (O96017 whole entry): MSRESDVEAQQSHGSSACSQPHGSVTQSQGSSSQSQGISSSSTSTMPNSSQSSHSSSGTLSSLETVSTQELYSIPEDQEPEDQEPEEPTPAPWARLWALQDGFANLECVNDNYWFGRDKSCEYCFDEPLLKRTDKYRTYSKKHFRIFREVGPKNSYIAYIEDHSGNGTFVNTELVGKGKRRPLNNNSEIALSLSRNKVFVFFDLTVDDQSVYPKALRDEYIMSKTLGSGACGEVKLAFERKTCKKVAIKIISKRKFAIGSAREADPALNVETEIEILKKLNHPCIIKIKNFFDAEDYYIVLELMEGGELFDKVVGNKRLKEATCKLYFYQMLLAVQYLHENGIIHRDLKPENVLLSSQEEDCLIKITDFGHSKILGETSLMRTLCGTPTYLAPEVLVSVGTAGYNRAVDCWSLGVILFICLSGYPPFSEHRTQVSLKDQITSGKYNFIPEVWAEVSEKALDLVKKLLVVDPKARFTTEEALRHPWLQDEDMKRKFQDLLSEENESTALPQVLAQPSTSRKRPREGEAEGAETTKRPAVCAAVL
In short: as §1

DYRK1AA = target: T3, DYRK1AA (Homo sapiens, UniProt Q13627)
T3 construct: purchased in-house (home-made panel, SGC-style construct names)
In short: as §1

PKMYT1A = target: T4, PKMYT1A (Homo sapiens, UniProt Q99640)
T4 construct: purchased in-house (home-made panel, SGC-style construct names)
T4 sequence (Q99640 1-499): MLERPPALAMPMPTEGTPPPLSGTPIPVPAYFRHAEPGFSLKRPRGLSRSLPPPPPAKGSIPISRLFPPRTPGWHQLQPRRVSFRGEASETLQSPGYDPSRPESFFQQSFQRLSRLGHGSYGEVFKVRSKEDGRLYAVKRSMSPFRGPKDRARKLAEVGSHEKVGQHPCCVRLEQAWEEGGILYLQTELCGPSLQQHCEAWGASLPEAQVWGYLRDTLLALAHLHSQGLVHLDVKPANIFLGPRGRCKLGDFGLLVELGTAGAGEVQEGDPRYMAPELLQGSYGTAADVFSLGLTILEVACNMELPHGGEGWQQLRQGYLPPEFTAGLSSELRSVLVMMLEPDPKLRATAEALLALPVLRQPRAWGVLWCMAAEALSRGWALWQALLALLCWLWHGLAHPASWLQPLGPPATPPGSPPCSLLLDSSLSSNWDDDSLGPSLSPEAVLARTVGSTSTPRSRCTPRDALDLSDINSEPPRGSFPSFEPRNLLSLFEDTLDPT
In short: as §1

RPS6KA1A = target: T5, RPS6KA1A (Homo sapiens, UniProt Q15418)
T5 construct: purchased in-house (home-made panel, SGC-style construct names)
T5 sequence (Q15418 whole entry): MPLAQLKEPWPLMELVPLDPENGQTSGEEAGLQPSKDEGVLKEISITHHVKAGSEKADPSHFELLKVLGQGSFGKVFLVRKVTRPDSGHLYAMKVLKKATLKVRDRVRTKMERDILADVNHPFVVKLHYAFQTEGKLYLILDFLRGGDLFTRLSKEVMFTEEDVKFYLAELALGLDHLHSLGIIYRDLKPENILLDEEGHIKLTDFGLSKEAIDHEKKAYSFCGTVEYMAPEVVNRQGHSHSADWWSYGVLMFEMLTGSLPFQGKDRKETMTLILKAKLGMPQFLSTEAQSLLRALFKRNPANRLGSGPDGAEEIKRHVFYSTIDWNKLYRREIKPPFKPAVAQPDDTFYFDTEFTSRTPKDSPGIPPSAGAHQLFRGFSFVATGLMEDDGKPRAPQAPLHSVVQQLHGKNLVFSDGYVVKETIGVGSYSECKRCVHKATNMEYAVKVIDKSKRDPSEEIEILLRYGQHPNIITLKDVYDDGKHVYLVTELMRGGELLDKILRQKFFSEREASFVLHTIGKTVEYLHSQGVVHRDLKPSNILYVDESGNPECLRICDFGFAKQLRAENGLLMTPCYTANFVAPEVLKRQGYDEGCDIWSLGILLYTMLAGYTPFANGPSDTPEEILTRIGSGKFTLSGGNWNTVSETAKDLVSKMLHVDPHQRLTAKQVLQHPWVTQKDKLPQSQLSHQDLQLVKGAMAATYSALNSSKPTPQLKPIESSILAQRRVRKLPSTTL
In short: as §1

SLKA = target: T6, SLKA (Homo sapiens, UniProt Q9H2G2)
T6 construct: purchased in-house (home-made panel, SGC-style construct names)
T6 sequence (Q9H2G2 whole entry): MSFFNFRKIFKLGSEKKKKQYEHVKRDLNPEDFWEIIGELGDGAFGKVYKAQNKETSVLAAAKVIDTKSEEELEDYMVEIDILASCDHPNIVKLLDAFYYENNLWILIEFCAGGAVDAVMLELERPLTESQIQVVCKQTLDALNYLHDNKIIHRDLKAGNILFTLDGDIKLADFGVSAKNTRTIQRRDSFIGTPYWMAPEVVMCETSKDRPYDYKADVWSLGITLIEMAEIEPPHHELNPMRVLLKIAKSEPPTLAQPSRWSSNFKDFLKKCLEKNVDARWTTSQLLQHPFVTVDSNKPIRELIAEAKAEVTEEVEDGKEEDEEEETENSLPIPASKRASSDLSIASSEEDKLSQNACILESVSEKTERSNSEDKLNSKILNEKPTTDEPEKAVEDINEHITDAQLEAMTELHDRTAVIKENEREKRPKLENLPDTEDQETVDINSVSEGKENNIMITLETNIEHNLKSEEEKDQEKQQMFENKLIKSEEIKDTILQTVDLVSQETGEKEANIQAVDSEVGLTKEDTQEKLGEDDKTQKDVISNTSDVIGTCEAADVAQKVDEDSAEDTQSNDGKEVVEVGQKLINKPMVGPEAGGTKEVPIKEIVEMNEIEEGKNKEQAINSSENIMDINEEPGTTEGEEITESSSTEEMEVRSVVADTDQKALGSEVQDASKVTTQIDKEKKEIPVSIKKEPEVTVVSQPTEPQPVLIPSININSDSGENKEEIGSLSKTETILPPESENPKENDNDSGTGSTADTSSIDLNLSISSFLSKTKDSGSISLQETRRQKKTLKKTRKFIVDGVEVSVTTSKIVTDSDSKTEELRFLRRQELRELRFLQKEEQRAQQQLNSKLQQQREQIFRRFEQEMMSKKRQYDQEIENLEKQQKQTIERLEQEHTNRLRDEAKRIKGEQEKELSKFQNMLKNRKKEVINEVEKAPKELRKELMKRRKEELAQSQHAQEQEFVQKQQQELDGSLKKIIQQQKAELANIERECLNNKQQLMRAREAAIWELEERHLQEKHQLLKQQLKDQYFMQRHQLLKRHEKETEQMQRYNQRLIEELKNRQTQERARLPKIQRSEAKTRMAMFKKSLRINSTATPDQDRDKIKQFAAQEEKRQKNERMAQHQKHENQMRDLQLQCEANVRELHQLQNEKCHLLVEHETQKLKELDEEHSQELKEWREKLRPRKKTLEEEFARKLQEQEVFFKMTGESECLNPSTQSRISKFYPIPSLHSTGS
In short: as §1

STK17AA = target: T7, STK17AA (Homo sapiens, UniProt Q9UEE5)
T7 construct: TEV-cleavable (cleaved yes); made in house; host or cells: E. coli
T7 sequence (Q9UEE5 1-414): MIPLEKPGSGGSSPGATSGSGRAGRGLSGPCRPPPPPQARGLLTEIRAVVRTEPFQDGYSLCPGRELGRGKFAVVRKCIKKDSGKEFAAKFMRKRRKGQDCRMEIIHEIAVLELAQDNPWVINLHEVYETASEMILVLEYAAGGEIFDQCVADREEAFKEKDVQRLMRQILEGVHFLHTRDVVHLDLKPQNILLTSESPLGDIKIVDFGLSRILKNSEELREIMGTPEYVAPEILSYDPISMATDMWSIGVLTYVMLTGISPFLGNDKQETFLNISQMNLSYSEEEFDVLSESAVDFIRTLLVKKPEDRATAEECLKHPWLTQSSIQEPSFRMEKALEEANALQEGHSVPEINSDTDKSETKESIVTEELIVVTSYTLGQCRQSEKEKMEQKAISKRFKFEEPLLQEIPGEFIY
In short: as §1

STK24A = target: T8, STK24A (Homo sapiens, UniProt Q9Y6E0)
T8 construct: TEV-cleavable (cleaved yes); made in house; host or cells: E. coli
T8 sequence (Q9Y6E0 whole entry): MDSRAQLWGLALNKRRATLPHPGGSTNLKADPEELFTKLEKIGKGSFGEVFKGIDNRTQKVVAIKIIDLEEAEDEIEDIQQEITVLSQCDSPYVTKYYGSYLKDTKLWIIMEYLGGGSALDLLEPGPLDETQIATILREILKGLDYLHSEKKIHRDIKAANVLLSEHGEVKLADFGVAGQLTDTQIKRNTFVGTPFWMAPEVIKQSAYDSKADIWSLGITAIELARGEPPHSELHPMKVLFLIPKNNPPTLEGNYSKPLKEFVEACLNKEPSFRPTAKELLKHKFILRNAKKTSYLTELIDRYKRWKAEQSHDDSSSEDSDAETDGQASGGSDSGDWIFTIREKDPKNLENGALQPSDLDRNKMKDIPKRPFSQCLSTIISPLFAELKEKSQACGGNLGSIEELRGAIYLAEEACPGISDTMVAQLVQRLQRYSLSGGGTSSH
In short: as §1

VRK1 = target: T9, VRK1 (Homo sapiens, UniProt Q99986)
T9 construct: TEV-cleavable (cleaved yes); made in house; host or cells: E. coli
T9 sequence (Q99986 1-396): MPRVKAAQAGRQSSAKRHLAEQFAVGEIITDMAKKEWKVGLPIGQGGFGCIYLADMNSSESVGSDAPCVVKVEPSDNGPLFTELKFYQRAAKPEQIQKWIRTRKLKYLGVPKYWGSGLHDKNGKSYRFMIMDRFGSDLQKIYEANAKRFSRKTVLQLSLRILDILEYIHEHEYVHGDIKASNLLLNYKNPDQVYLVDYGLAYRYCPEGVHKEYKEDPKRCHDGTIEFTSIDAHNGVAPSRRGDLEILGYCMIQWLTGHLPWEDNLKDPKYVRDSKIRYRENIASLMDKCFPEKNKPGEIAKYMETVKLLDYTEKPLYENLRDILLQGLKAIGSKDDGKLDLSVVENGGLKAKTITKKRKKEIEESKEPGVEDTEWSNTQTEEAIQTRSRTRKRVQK
In short: as §1

VRK2A = target: T10, VRK2A (Homo sapiens, UniProt Q86Y07)
T10 construct: TEV-cleavable (cleaved yes); made in house; host or cells: E. coli
T10 sequence (Q86Y07 whole entry): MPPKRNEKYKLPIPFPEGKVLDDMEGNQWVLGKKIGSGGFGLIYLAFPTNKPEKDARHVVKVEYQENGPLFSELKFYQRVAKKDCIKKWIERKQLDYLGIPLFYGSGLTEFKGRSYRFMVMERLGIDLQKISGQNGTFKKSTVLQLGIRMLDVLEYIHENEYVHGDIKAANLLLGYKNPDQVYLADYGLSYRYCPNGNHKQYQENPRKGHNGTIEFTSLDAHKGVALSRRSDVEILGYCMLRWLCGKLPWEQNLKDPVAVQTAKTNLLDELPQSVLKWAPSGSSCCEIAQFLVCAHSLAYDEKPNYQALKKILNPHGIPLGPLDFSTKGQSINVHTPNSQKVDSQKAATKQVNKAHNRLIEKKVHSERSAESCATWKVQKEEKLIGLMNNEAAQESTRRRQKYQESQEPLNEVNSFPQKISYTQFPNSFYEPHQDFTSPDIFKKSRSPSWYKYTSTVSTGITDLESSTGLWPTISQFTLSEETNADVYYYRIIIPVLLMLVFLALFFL
In short: as §1

T1 sequence (Q2M2I8 whole entry): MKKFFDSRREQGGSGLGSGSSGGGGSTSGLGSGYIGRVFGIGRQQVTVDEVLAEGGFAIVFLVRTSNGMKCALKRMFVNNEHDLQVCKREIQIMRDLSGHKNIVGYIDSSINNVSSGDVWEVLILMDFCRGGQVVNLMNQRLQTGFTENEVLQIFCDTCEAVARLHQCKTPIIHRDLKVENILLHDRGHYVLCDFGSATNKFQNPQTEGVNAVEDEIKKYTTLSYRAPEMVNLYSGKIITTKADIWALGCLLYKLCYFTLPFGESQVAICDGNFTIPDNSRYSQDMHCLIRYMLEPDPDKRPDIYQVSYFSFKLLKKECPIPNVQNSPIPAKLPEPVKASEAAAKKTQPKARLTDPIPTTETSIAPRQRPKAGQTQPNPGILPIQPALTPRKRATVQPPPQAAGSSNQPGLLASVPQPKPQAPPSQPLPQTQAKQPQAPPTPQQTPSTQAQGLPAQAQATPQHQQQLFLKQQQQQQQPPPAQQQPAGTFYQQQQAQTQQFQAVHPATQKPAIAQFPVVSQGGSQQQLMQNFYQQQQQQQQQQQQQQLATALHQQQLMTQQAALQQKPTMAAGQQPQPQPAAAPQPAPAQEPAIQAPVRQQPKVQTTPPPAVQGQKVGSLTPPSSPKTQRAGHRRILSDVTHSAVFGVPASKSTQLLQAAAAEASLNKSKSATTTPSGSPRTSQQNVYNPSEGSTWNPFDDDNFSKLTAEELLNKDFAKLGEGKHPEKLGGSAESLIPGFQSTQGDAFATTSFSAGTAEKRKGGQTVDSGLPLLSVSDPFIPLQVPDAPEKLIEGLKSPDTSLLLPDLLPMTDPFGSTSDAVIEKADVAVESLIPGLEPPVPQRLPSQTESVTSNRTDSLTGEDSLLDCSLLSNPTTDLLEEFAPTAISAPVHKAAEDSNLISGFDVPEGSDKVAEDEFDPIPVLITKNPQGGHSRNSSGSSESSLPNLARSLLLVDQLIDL

CNC(=O)c1ccccc1Nc1nsnc(Nc2ccc(N3CCOCC3)cc2)c1=O [Compound 5, N-Methyl-2-({5-[(4-morpholinophenyl)amino]-4-oxo-4H-1,2,6-thiadiazin-3-yl}amino)benzamide]
ΔTm at 10 µM (AAK1): -0.4 °C | ΔTm at 10 µM (CHEK2): 0.8 °C | ΔTm at 10 µM (DYRK1AA): -0.8 °C | ΔTm at 10 µM (PKMYT1A): -0.8 °C | ΔTm at 10 µM (RPS6KA1A): -0.4 °C | ΔTm at 10 µM (SLKA): -0.7 °C | ΔTm at 10 µM (STK17AA): -0.8 °C | ΔTm at 10 µM (STK24A): -1.1 °C | ΔTm at 10 µM (VRK1): -0.3 °C | ΔTm at 10 µM (VRK2A): -0.3 °C

CNC(=O)c1ccccc1Nc1nsnc(Nc2cccc(CS(C)(=O)=O)c2)c1=O [Compound 4, N-Methyl-2-([5-({3-[(methylsulfonyl)methyl]phenyl}amino)-4-oxo-4H-1,2,6-thiadiazin-3-yl]-amino}-benzamide]
ΔTm at 10 µM (AAK1): -0.4 °C | ΔTm at 10 µM (CHEK2): 0.6 °C | ΔTm at 10 µM (DYRK1AA): -0.5 °C | ΔTm at 10 µM (PKMYT1A): -0.3 °C | ΔTm at 10 µM (RPS6KA1A): -0.4 °C | ΔTm at 10 µM (SLKA): -0.8 °C | ΔTm at 10 µM (STK17AA): -0.8 °C | ΔTm at 10 µM (STK24A): 0 °C | ΔTm at 10 µM (VRK1): -0.3 °C | ΔTm at 10 µM (VRK2A): -0.3 °C

Cc1ccc(Nc2nsnc(Nc3cccc(C(N)=O)c3)c2=O)cc1O [Compound 1, 3-({5-[(3-Hydroxy-4-methylphenyl)amino]-4-oxo-4H-1,2,6-thiadiazin-3-yl}amino)benzamide]
ΔTm at 10 µM (AAK1): 0.6 °C | ΔTm at 10 µM (CHEK2): 0.6 °C | ΔTm at 10 µM (DYRK1AA): -0.6 °C | ΔTm at 10 µM (PKMYT1A): 0 °C | ΔTm at 10 µM (RPS6KA1A): -0.6 °C | ΔTm at 10 µM (SLKA): -0.6 °C | ΔTm at 10 µM (STK17AA): -0.5 °C | ΔTm at 10 µM (STK24A): -0.1 °C | ΔTm at 10 µM (VRK1): -0.4 °C | ΔTm at 10 µM (VRK2A): -0.6 °C

Cc1ccc(Nc2nsnc(Nc3ccc(C(N)=O)cc3)c2=O)cc1O [Compound 2, 4-({5-[(3-Hydroxy-4-methylphenyl)amino]-4-oxo-4H-1,2,6-thiadiazin-3-yl}amino)benzamide]
ΔTm at 10 µM (AAK1): 1.5 °C | ΔTm at 10 µM (CHEK2): 3.1 °C | ΔTm at 10 µM (DYRK1AA): 0.9 °C | ΔTm at 10 µM (PKMYT1A): 3 °C | ΔTm at 10 µM (RPS6KA1A): 1.3 °C | ΔTm at 10 µM (SLKA): -0.1 °C | ΔTm at 10 µM (STK17AA): 2.2 °C | ΔTm at 10 µM (VRK1): -0.7 °C | ΔTm at 10 µM (VRK2A): 1.8 °C

Cc1ccc(Nc2nsnc(Nc3ccc4c(c3)CS(=O)(=O)C4)c2=O)cc1O [Compound 3, 3-[(2,2-Dioxido-1,3-dihydrobenzo[c]thiophen-5-yl)amino]-5-[(3-hydroxy-4-methylphenyl)amino]-4H-1,2,6-thiadiazin-4-one]
ΔTm at 10 µM (AAK1): 0.6 °C | ΔTm at 10 µM (CHEK2): 1.6 °C | ΔTm at 10 µM (DYRK1AA): -0.1 °C | ΔTm at 10 µM (PKMYT1A): 1.2 °C | ΔTm at 10 µM (RPS6KA1A): -0.4 °C | ΔTm at 10 µM (SLKA): -0.2 °C | ΔTm at 10 µM (STK17AA): 1.7 °C | ΔTm at 10 µM (STK24A): -0.3 °C | ΔTm at 10 µM (VRK1): -0.2 °C | ΔTm at 10 µM (VRK2A): 0.1 °C
